Assay results taken from ChEMBL document CHEMBL1145521, “Lenalidomide inhibits the malignant clone and up-regulates the SPARC gene mapping to the commonly deleted region in 5q- syndrome patients” (2007).
Calls of active or inactive are those of the source. The calls are words filed in the database; no cut-off is given here.

How the values were obtained:
[1] = Down-regulation of TUBB2 gene expression in healthy human erythroblasts after 7 days relative to control; assay type: functional
[2] = Down-regulation of HBB gene expression in erythroblasts from myelodysplastic syndrome del(5q) patient after 7 days relative to control; assay type: functional; settings: Homo sapiens
[3] = Down-regulation of HBB gene expression in healthy human erythroblasts after 7 days relative to control; assay type: functional
[4] = Down-regulation of HBBP1 gene expression in erythroblasts from myelodysplastic syndrome del(5q) patient after 7 days relative to control; assay type: functional; settings: Homo sapiens
[5] = Down-regulation of HBBP1 gene expression in healthy human erythroblasts after 7 days relative to control; assay type: functional
[6] = Down-regulation of SPTA1 gene expression in erythroblasts from myelodysplastic syndrome del(5q) patient after 7 days relative to control; assay type: functional; settings: Homo sapiens
[7] = Down-regulation of HBG2 gene expression in erythroblasts from myelodysplastic syndrome del(5q) patient after 7 days relative to control; assay type: functional; settings: Homo sapiens
[8] = Down-regulation of HBG2 gene expression in healthy human erythroblasts after 7 days relative to control; assay type: functional
[9] = Down-regulation of KLF1 gene expression in erythroblasts from myelodysplastic syndrome del(5q) patient after 7 days relative to control; assay type: functional; settings: Homo sapiens
[10] = Down-regulation of KLF1 gene expression in healthy human erythroblasts after 7 days relative to control; assay type: functional
[11] = Down-regulation of GYPA gene expression in erythroblasts from myelodysplastic syndrome del(5q) patient after 7 days relative to control; assay type: functional; settings: Homo sapiens
[12] = Down-regulation of GYPA gene expression in healthy human erythroblasts after 7 days relative to control; assay type: functional
[13] = Down-regulation of CXADR gene expression in erythroblasts from myelodysplastic syndrome del(5q) patient after 7 days relative to control; assay type: functional; settings: Homo sapiens
[14] = Down-regulation of CXADR gene expression in healthy human erythroblasts after 7 days relative to control; assay type: functional
[15] = Down-regulation of GYPB gene expression in erythroblasts from myelodysplastic syndrome del(5q) patient after 7 days relative to control; assay type: functional; settings: Homo sapiens
[16] = Down-regulation of GYPB gene expression in healthy human erythroblasts after 7 days relative to control; assay type: functional
[17] = Down-regulation of ALAS2 gene expression in erythroblasts from myelodysplastic syndrome del(5q) patient after 7 days relative to control; assay type: functional; settings: Homo sapiens
[18] = Down-regulation of ALAS2 gene expression in healthy human erythroblasts after 7 days relative to control; assay type: functional
[19] = Down-regulation of GYPE gene expression in erythroblasts from myelodysplastic syndrome del(5q) patient after 7 days relative to control; assay type: functional; settings: Homo sapiens
[20] = Down-regulation of GYPE gene expression in healthy human erythroblasts after 7 days relative to control; assay type: functional
[21] = Down-regulation of AMMECR1 gene expression in erythroblasts from myelodysplastic syndrome del(5q) patient after 7 days relative to control; assay type: functional; settings: Homo sapiens
[22] = Down-regulation of AMMECR1 gene expression in healthy human erythroblasts after 7 days relative to control; assay type: functional
[23] = Down-regulation of THRB gene expression in erythroblasts from myelodysplastic syndrome del(5q) patient after 7 days relative to control; assay type: functional; settings: Homo sapiens
[24] = Down-regulation of THRB gene expression in healthy human erythroblasts after 7 days relative to control; assay type: functional
[25] = Down-regulation of LRP11 gene expression in erythroblasts from myelodysplastic syndrome del(5q) patient after 7 days relative to control; assay type: functional; settings: Homo sapiens
[26] = Down-regulation of LRP11 gene expression in healthy human erythroblasts after 7 days relative to control; assay type: functional
[27] = Down-regulation of SPTA1 gene expression in healthy human erythroblasts after 7 days relative to control; assay type: functional
[28] = Upregulation of CHI3L1 gene expression in healthy human erythroblasts after 7 days relative to control; assay type: functional
[29] = Upregulation of CHI3L1 gene expression in erythroblasts from myelodysplastic syndrome del(5q) patient after 7 days relative to control; assay type: functional; settings: Homo sapiens
[30] = Upregulation of CXCL1 gene expression in erythroblasts from myelodysplastic syndrome del(5q) patient after 7 days relative to control; assay type: functional; settings: Homo sapiens
[31] = Upregulation of CXCL1 gene expression in healthy human erythroblasts after 7 days relative to control; assay type: functional
[32] = Upregulation of TPBG gene expression in erythroblasts from myelodysplastic syndrome del(5q) patient after 7 days relative to control; assay type: functional; settings: Homo sapiens
[33] = Upregulation of TPBG gene expression in healthy human erythroblasts after 7 days relative to control; assay type: functional
[34] = Upregulation of MAOA gene expression in erythroblasts from myelodysplastic syndrome del(5q) patient after 7 days relative to control; assay type: functional; settings: Homo sapiens
[35] = Upregulation of MAOA gene expression in healthy human erythroblasts after 7 days relative to control; assay type: functional
[36] = Upregulation of PRG3 gene expression in erythroblasts from myelodysplastic syndrome del(5q) patient after 7 days relative to control; assay type: functional; settings: Homo sapiens
[37] = Upregulation of RTN1 gene expression in erythroblasts from myelodysplastic syndrome del(5q) patient after 7 days relative to control; assay type: functional; settings: Homo sapiens
[38] = Upregulation of RTN1 gene expression in healthy human erythroblasts after 7 days relative to control; assay type: functional
[39] = Upregulation of ANGPT2 gene expression in erythroblasts from myelodysplastic syndrome del(5q) patient after 7 days relative to control; assay type: functional; settings: Homo sapiens
[40] = Upregulation of ANGPT2 gene expression in healthy human erythroblasts after 7 days relative to control; assay type: functional
[41] = Upregulation of CYP4F3 gene expression in erythroblasts from myelodysplastic syndrome del(5q) patient after 7 days relative to control; assay type: functional; settings: Homo sapiens
[42] = Upregulation of CYP4F3 gene expression in healthy human erythroblasts after 7 days relative to control; assay type: functional
[43] = Upregulation of DSC2 gene expression in erythroblasts from myelodysplastic syndrome del(5q) patient after 7 days relative to control; assay type: functional; settings: Homo sapiens
[44] = Upregulation of DSC2 gene expression in healthy human erythroblasts after 7 days relative to control; assay type: functional
[45] = Upregulation of PRG3 gene expression in healthy human erythroblasts after 7 days relative to control; assay type: functional
[46] = Upregulation of SEC14L5 gene expression in erythroblasts from myelodysplastic syndrome del(5q) patient after 7 days relative to control; assay type: functional; settings: Homo sapiens
[47] = Upregulation of SEC14L5 gene expression in healthy human erythroblasts after 7 days relative to control; assay type: functional
[48] = Down-regulation of HBA2 gene expression in erythroblasts from myelodysplastic syndrome del(5q) patient after 7 days relative to control; assay type: functional; settings: Homo sapiens
[49] = Down-regulation of HBA2 gene expression in healthy human erythroblasts after 7 days relative to control; assay type: functional
[50] = Down-regulation of HBA1 gene expression in erythroblasts from myelodysplastic syndrome del(5q) patient after 7 days relative to control; assay type: functional; settings: Homo sapiens
[51] = Down-regulation of HBA1 gene expression in healthy human erythroblasts after 7 days relative to control; assay type: functional
[52] = Down-regulation of TUBB2 gene expression in erythroblasts from myelodysplastic syndrome del(5q) patient after 7 days relative to control; assay type: functional; settings: Homo sapiens
Homo sapiens [53] = organism: Homo sapiens; experiment: Inhibition of cell proliferation of human bone marrow mononuclear cells assessed as [3H]thymidine incorporation upto 500 uM after 4 days; assay type: functional
Homo sapiens [54] = organism: Homo sapiens; experiment: Inhibition of cell proliferation of CD34+ progenitor cells from myelodysplastic syndrome del(5q) patient after 14 days; assay type: functional
Homo sapiens [55] = organism: Homo sapiens; experiment: Growth inhibition of CD34+ progenitor cells from non-del(5q) myelodysplastic syndrome patient after 14 days; assay type: functional
[56] = Growth inhibition of CD34- mononuclear cells from myelodysplastic syndrome del(5q-) patient by FISH after 7 days; assay type: functional, Homo sapiens
[57] = Decrease in erythroid differentiation of CD34+ progenitor cells from myelodysplastic syndrome del(5q) patient assessed as CD36 expression after 14 days; assay type: functional; settings: Homo sapiens
[58] = Decrease in erythroid differentiation of CD34+ progenitor cells from myelodysplastic syndrome del(5q) patient assessed as glycophorin A expression after 14 days; assay type: functional; settings: Homo sapiens
[59] = Decrease in myeloid differentiation of CD34+ progenitor cells from myelodysplastic syndrome del(5q) patient assessed as CD33 expression after 14 days; assay type: functional; settings: Homo sapiens
[60] = Upregulation of INHBA gene expression in erythroblasts from myelodysplastic syndrome del(5q) patient after 7 days relative to control; assay type: functional; settings: Homo sapiens
[61] = Upregulation of INHBA gene expression in healthy human erythroblasts after 7 days relative to control; assay type: functional
[62] = Upregulation of PPIC gene expression in healthy human erythroblasts after 7 days relative to control; assay type: functional
[63] = Upregulation of SPARC gene expression in erythroblasts from myelodysplastic syndrome del(5q) patient after 7 days relative to control; assay type: functional; settings: Homo sapiens
[64] = Upregulation of PPIC gene expression in erythroblasts from myelodysplastic syndrome del(5q) patient after 7 days relative to control; assay type: functional; settings: Homo sapiens
[65] = Upregulation of VSIG4 gene expression in healthy human erythroblasts after 7 days relative to control; assay type: functional
[66] = Upregulation of DEFA1 gene expression in healthy human erythroblasts after 7 days relative to control; assay type: functional
[67] = Upregulation of VSIG4 gene expression in erythroblasts from myelodysplastic syndrome del(5q) patient after 7 days relative to control; assay type: functional; settings: Homo sapiens
[68] = Upregulation of DEFA1 gene expression in erythroblasts from myelodysplastic syndrome del(5q) patient after 7 days relative to control; assay type: functional; settings: Homo sapiens
[69] = Upregulation of SPARC gene expression in healthy human erythroblasts after 7 days relative to control; assay type: functional
[70] = Increase in SPARC gene expression in erythroid progenitor cells from non-del(5q) myelodysplastic syndrome patient by RT-PCR after 7 days relative to control; assay type: functional, Homo sapiens
[71] = Increase in activin A gene expression in erythroid progenitor cells from non-del(5q) myelodysplastic syndrome patient by RT-PCR after 7 days relative to control; assay type: functional, Homo sapiens
[72] = Increase in SPARC gene expression in CD34- mononuclear cells from del(5q) myelodysplastic syndrome patient by RT-PCR after 2 days relative to control
[73] = Increase in SPARC gene expression in CD34- mononuclear cells from del(5q) myelodysplastic syndrome patient by RT-PCR after 7 days relative to control
[74] = Increase in activin A gene expression in CD34- mononuclear cells from del(5q) myelodysplastic syndrome patient by RT-PCR after 2 days relative to control
[75] = Increase in activin A gene expression in CD34- mononuclear cells from del(5q) myelodysplastic syndrome patient by RT-PCR after 7 days relative to control

Nc1cccc2c1CN(C1CCC(=O)NC1=O)C2=O (stereo not given) [LENALIDOMIDE]
Fold change [1]: 13.9 | Fold change [2]: 7.7 | Fold change [3]: 3.4 | Fold change [4]: 4.9 | Fold change [5]: 2.8 | Fold change [6]: 4.5 | Fold change [7]: -4.4 | Fold change [8]: -1.4 | Fold change [9]: 3.7 | Fold change [10]: 3.4 | Fold change [11]: 3.7 | Fold change [12]: 9.1 | Fold change [13]: 3.6 | Fold change [14]: 5.9 | Fold change [15]: 3.6 | Fold change [16]: 2.9 | Fold change [17]: 3.3 | Fold change [18]: 7.6 | Fold change [19]: 3 | Fold change [20]: 2.2 | Fold change [21]: 2.9 | Fold change [22]: -3.2 | Fold change [23]: 2.8 | Fold change [24]: 2 | Fold change [25]: 2.4 | Fold change [26]: 4.8 | Fold change [27]: 4.8 | Fold change [28]: 10.3 | Fold change [29]: 6.1 | Fold change [30]: 4.1 | Fold change [31]: 2.9 | Fold change [32]: 4.1 | Fold change [33]: 5.4 | Fold change [34]: 3.9 | Fold change [35]: 2.1 | Fold change [36]: 2.9 | Fold change [37]: 3.5 | Fold change [38]: 5.4 | Fold change [39]: 3.3 | Fold change [40]: 1.9 | Fold change [41]: 3.1 | Fold change [42]: 3.5 | Fold change [43]: 3 | Fold change [44]: 3.6 | Fold change [45]: 1.7 | Fold change [46]: 2.8 | Fold change [47]: 3.6 | Fold change [48]: 11 | Fold change [49]: 9.7 | Fold change [50]: 8.5 | Fold change [51]: 11.1 | Fold change [52]: 8.2 | Activity (Homo sapiens [53]): inactive | Activity (Homo sapiens [54]): Active | Activity (Homo sapiens [55]): Active | growth inhibition (GI) [56]: 65% | Activity [57]: Active | Activity [58]: Active | Activity [59]: Active | Fold change [60]: 4.9 | Fold change [61]: 2.5 | Fold change [62]: 10.9 | Fold change [63]: 4.1 | Fold change [64]: 5.2 | Fold change [65]: 9.5 | Fold change [66]: 16.3 | Fold change [67]: 9.5 | Fold change [68]: 8.9 | Fold change [69]: 4.8 | Fold change [70]: 9.3 | Fold change [71]: 12.6 | Fold change [72]: 8.1 | Fold change [73]: 5.8 | Fold change [74]: 2.5 | Fold change [75]: 2.6
